Converted amounts (≈) assume the structure as drawn. “Also recorded” adds a separate entry of the source.
Legend:
[1] = test system: HUVEC (human umbilical vein endothelial cells); test: cells; type: cell-based; conditions: for IC50: Homo sapiens, HUVEC, isolated compounds, MTT, 72 h, normal cells; for toxicity towards normal cells HUVEC (in words): MTT assay
Procedure: (§1) The human cell lines MCF-7 (breast cancer), Ca Ski (cervical cancer), and HT-29 (colon cancer) were cultured as monolayer in RPMI 1640 growth media. HUVEC (human umbilical vein endothelial cells) and PC-3 (prostate cancer) cells were cultured in DMEM. All cells were purchased from the American Tissue Culture Collection (ATCC, USA) except for human umbilical vein endothelial cells (HUVEC) which were obtained from ScienCell Research Laboratories (Carlsbad, CA). All the media were supplemented with 10% v/v foetal bovine serum (FBS), 100 μg/mL penicillin/streptomycin, and 50 μg/mL amphotericin B. The cells were cultured in a 5% CO2 incubator at 37°C.
(§2) Cell viability was investigated using 3-(4, 5-dimethylthiazol-2-yl)-2, 5-diphenyltetrazolium bromide (MTT) assay. Cells were detached from the […] tissue culture flask when it achieved 80% confluency. The detached cells were pellet by centrifugation (1,000 rpm; 5 minutes). Cells (3.0 × 10^4 cells/mL) were seeded onto a 96-well microtiter plate (Nunc). The cells were incubated at 37°C CO2 incubator for 24 h to give adherent cells. The test compounds (1–100 μg/mL) were added onto the 96-well microtiter plate containing adherent cells. The untreated cells were incubated in 10% media containing 0.5% DMSO (without addition of any test compounds/extracts). This mixture was regarded as the negative control whereas doxorubicin as the positive control. The plates were incubated for 72 h at 37°C in a 5% CO2 incubator. After 72 h, the media were removed and 100 μL of fresh medium and 20 μL of MTT (Sigma, filter sterile, 5 mg/mL) were added to each well and further incubated for 4 hours (37°C) after which the media were substituted with 150 μL DMSO. The 96-well microtiter plates were then agitated at room temperature onto an incubator shaker to dissolve the formazan crystals. The absorbance (A) of the content of the plates was measured at 540 nm using a microplate reader. The percentage of inhibition of each test sample was calculated according to the following formula: Percentage of inhibition (%) = (A control − A sample)/A control × 100%. The average of three replicates was then obtained. The IC50 for each extract was extrapolated from the graphs of the percentage inhibition versus concentration of test agents. Cytotoxicity of each test agent is expressed as IC50 value. The IC50 value is the concentration of test agents that cause 50% inhibition or cell death, averaged from the three experiments. The selectivity index (SI) was also calculated as described by using the ratio between IC50 of the extract or compounds on normal cell lines (HUVEC) and IC50 of the tested extract or compounds on cancerous cell lines. Selectivity index (SI) values equal or greater than three were considered to have a high selectivity towards cancerous cells. An SI value denotes the selectivity of the sample to the tested cell lines.

MCF-7 (breast cancer) = test: cells; type: cell-based; conditions: for IC50: Homo sapiens, MCF7, MTT, 72 h, mean ± SD of three replicates; for IC50 / SI (selectivity index) MCF-7: isolated compounds; for SI (selectivity index) MCF-7: IC50 HUVEC / IC50 MCF-7; for antiproliferative/cytotoxic activity against MCF-7 (in words): MTT assay
Procedure: as §1, §2

MCF-7 = test system: MCF-7; parameters: method as in PMID 21629182; conditions: zerumin A isolated from Curcuma mangga; cited from earlier work
HT-29 (colon cancer) = test: MTT cytotoxicity assay, HT-29; type: cell-based; conditions: for IC50: Homo sapiens, HT-29, MTT, 72 h, mean ± SD of three replicates; for IC50 / SI (selectivity index) HT-29: isolated compounds; for antiproliferative/cytotoxic activity against HT-29 (in words): MTT assay; for SI (selectivity index) HT-29: IC50 HUVEC / IC50 HT-29
Procedure: as §1, §2

Ca Ski = test system: Ca Ski; parameters: method as in PMID 21629182; conditions: zerumin A isolated from Curcuma mangga; cited from earlier work
PC-3 (prostate cancer) = test: MTT cytotoxicity assay, PC-3; type: cell-based; conditions: for IC50: Homo sapiens, MTT, 72 h, mean ± SD of three replicates; for IC50 / SI (selectivity index) PC-3: isolated compounds; for antiproliferative/cytotoxic activity against PC-3 (in words): MTT assay; for SI (selectivity index) PC-3: IC50 HUVEC / IC50 PC-3
Procedure: as §1, §2

MCF-7 cells [2] = test: Phase contrast microscopy of treated MCF-7 cells; type: cell-based, human; conditions: 48 h; 12.5 and 25 µg/mL; inverted phase contrast microscope 400x
Procedure: Briefly, MCF-7 cells (5 × 10^5) were grown in a tissue culture dishes (60 mm) for overnight. Then, the cells were treated with curcumenone (3) and curcumenol (5) at a concentration of 12.5 and 25 μg/mL, respectively. After 48 hours, cells were gently rinsed with PBS. The observation of morphological changes of apoptotic MCF-7 cells after treatment with the two bioactive compounds was viewed using an inverted phase contrast microscope (Leica DMI 3000B, Germany) at 400x magnification according to the method.

[3] = parameters: method as in PMID 23160092; conditions: cited from earlier work
[4] = test system: liver alcohol dehydrogenase; parameters: method as in PMID 23160092; conditions: cited from earlier work
Ca Ski (cervical cancer) = test: cells; type: cell-based; conditions: for IC50: Homo sapiens, Ca-Ski, MTT, 72 h, mean ± SD of three replicates; for IC50 / SI (selectivity index) Ca Ski: isolated compounds; for SI (selectivity index) Ca Ski: IC50 HUVEC / IC50 Ca Ski
Procedure: as §1, §2

[5] = parameters: method as in PMID 9871681; conditions: cited from earlier work
MCF-7 cells [6] = test: Hoechst 33342/PI double staining, fluorescence microscopy; type: cell-based, human; conditions: 48 h, 12.5 and 25 μg/mL
Procedure: The morphological features of MCF-7 cells upon treatment by the test compounds also observed by double staining of Hoechst 33342/PI assay using the inverted fluorescence microscope (Leica, DM16000B). Briefly, 5 × 10^5 cells were grown overnight and treated with 12.5 and 25 μg/mL of curcumenone (3) and curcumenol (5). After treatment of cells with the test compounds for 48 hours, both floating and adherent cells were collected by centrifugation and washed once with cold PBS. Then, Hoechst 33342 solutions (10 μg/mL) were added and incubated at 37°C for 7 minutes. The cells were then stained with PI (2.5 μg/mL) and further incubated in the dark for 15 minutes. Cell suspension (100 μL) was mounted onto glass microscope slides and observed under fluorescence microscope using UV/488 dual excitation (460 nm emission of Hoechst 33342, 575 nm emission of PI). Approximately a total of 200 target cells were calculated and the morphological characteristics of the nuclei were analyzed for quantification of apoptosis and necrosis. The percentage of apoptotic, necrotic, and dead cells was determined according to the formula described by.

P450 = test system: P450; parameters: method as in PMID 20148399; conditions: time- and NADPH-dependent inhibitions; cited from earlier work
[7] = parameters: method as in PMID 19043244; conditions: isolated from the rhizomes of Curcuma zedoaria; cited from earlier work

SMILES | IC50 [1] [µg/mL] | IC50 (MCF-7 (breast cancer)) [µg/mL] | SI (selectivity index) MCF-7 (MCF-7 (breast cancer)) | IC50 (HT-29 (colon cancer)) [µg/mL] | antiproliferative/cytotoxic activity against HT-29 (in words) (HT-29 (colon cancer)) | SI (selectivity index) HT-29 (HT-29 (colon cancer)) | IC50 (PC-3 (prostate cancer)) [µg/mL] | antiproliferative/cytotoxic activity against PC-3 (in words) (PC-3 (prostate cancer)) | SI (selectivity index) PC-3 (PC-3 (prostate cancer)) | morphological changes of MCF-7 cells (MCF-7 cells [2]) | toxicity towards normal cells HUVEC (in words) [1] | antiproliferative/cytotoxic activity against MCF-7 (in words) (MCF-7 (breast cancer)) | IC50 (Ca Ski (cervical cancer)) [µg/mL] | SI (selectivity index) Ca Ski (Ca Ski (cervical cancer)) | apoptosis induction (MCF-7 cells [6]) | other results
C=C1CC[C@H]2C(C)(C)CCC[C@]2(C)[C@H]1CC=C(C=O)CC(=O)O (stereo in doubt) [Compound 16, zerumin A] | 25.8 ± 1.9 (≈ 81 µM) | 22.3 ± 1.1 (≈ 70 µM) | 1.2 | 17.4 ± 2 (≈ 54.6 µM) | moderate inhibitory activity | 1.5 | 21.9 ± 1.6 (≈ 68.8 µM) | moderate inhibitory activity | 1.2 | – | – | – | – | – | – | IC50 MCF-7 (MCF-7): 14.2 ± 0.06 µg/mL (≈ 44.6 µM); IC50 Ca Ski (Ca Ski): 8.7 ± 0.29 µg/mL (≈ 27.3 µM)
CC(=O)CC[C@@H]1[C@H]2CC(=C(C)C)C(=O)C[C@@]12C [Compound 3, curcumenone] | 50 ± 8.6 (≈ 213 µM) | 8.3 ± 1 (≈ 35.4 µM) | 6.0 | 43.3 ± 6.2 (≈ 185 µM) | – | 1.2 | 39.8 ± 4.2 (≈ 170 µM) | – | 1.3 | cell shrinkage, loss of contact with adjacent cells, and decrease in cell numbers | slight toxicity | strong antiproliferative activity | > 100 | 0.5 | induction of apoptotic death occurred | effect on alcohol-treated mice [3]: protective effect; effect on liver alcohol dehydrogenase activity [4]: acceleration of liver alcohol dehydrogenase activity; toxicity towards normal cells HUVEC (in words) ([1]; listed as curcumenone): low toxicity; antiproliferative/cytotoxic activity against Ca Ski (in words) (Ca Ski (cervical cancer); MTT assay): did not show any antiproliferative activity; effect on D-galactosamine/lipopolysaccharide-induced acute liver injury [5]: effective protective effect
CC1=C[C@]2(O)O[C@@]3(CC2=C(C)C)[C@@H](C)CC[C@@H]13 [Compound 5, curcumenol] | 25.9 ± 1.4 (≈ 111 µM) | 9.3 ± 0.3 (≈ 39.7 µM) | 2.8 | 24.8 ± 2.7 (≈ 106 µM) | moderate inhibitory activity | 1.0 | 17.3 ± 1.2 (≈ 73.8 µM) | moderate inhibitory activity | 1.5 | cell shrinkage, loss of contact with adjacent cells, and decrease in cell numbers | low toxicity | strong antiproliferative activity | 18.5 ± 1 (≈ 78.9 µM) | 1.4 | induction of apoptotic death occurred; also recorded: better inducing apoptosis capacity in comparison to curcumenone (3) | mechanism-based P450 inhibition (P450): not a mechanism-based inhibitor
C/C1=C\CC[C@@]2(C)O[C@@H]2CC(C)(C)/C=C/C1=O [Compound 8, zerumbone epoxide] | 14.2 ± 1.1 (≈ 60.6 µM) | 24.1 ± 0.1 (≈ 103 µM) | 0.6 | 13.7 ± 2.7 (≈ 58.5 µM) | good cytotoxic effect | 1.0 | 10.8 ± 1.9 (≈ 46.1 µM) | good cytotoxic effect | 1.3 | – | slight toxicity | – | 34.5 ± 0.6 (≈ 147 µM) | 0.4 | – | cytotoxic effects [7]: possessed cytotoxic effects
CC1=CCCC2(C)OC2C(=O)c2c(C)coc2C1 (stereo not drawn) [Compound 9, zederone] | 42.1 ± 2.7 (≈ 171 µM) | > 100 | 0.4 | 19.1 ± 2.5 (≈ 77.5 µM) | moderate inhibitory activity | 2.2 | 27 ± 1.9 (≈ 110 µM) | moderate inhibitory activity | 1.6 | – | – | – | > 100 | 0.4 | – | –

From publication PMC4121215, “Cytotoxic Constituents from the Rhizomes of Curcuma zedoaria” (The Scientific World Journal, 2014)
